Reference: patent publication US20020111274A1, “1-alkyl-3-[1-(substituted phenyl) benzotriazol-6-yl] uracils” (BASF Aktiengesellschaft, priority 2000, published 2002)

Experiments:
ABUTH Velvetleaf [1] = assay: Postemergence herbicidal evaluation, ABUTH; assay type: in vivo, Abutilon theophrasti, Medic.; details: postemergence spray, rated about two-three weeks after treatment
In short: (§1)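 Two-week-old seedlings sprayed postemergence with compound in 80/20 acetone/water plus 1.0% methylated seed oil, at about 0.006–0.400 kg/ha, through a nozzle at 40 psi. Plants kept under greenhouse conditions and visually rated about two–three weeks after treatment; ratings from repeat tests averaged.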

AMBEL Ragweed, Common [2] = assay: Postemergence herbicidal evaluation, AMBEL; assay type: in vivo, Ambrosia artemisifolia, L.; details: postemergence spray, rated about two-three weeks after treatment
In short: as §1

CASOB Sicklepod [3] = assay: Postemergence herbicidal evaluation, CASOB; assay type: in vivo, Cassia obtusifolia, L.; details: postemergence spray, rated about two-three weeks after treatment
In short: as §1

[4] = system: CHEAL Lambsquarters, Common; assay: Postemergence herbicidal evaluation, CHEAL; assay type: in vivo, Chenopodium album, L.; details: postemergence spray, rated about two-three weeks after treatment
In short: as §1

ECHOG Barnyardgrass [5] = assay: Postemergence herbicidal evaluation, ECHOG; assay type: in vivo, Echinochloa crus-galli, (L.) Beau; details: postemergence spray, rated about two-three weeks after treatment
In short: as §1

GALAP Galium [6] = assay: Postemergence herbicidal evaluation, GALAP; assay type: in vivo, Galium aparine; details: postemergence spray, rated about two-three weeks after treatment
In short: as §1

[7] = system: IPOHE Morningglory, Ivyleaf; assay: Postemergence herbicidal evaluation, IPOHE; assay type: in vivo, Ipomoea hederacea, (L.) Jacq.; details: postemergence spray, rated about two-three weeks after treatment
In short: as §1

SETVI Foxtail, Green [8] = assay: Postemergence herbicidal evaluation, SETVI; assay type: in vivo, Setaria viridis, (L.) Beau; details: postemergence spray, rated about two-three weeks after treatment
In short: as §1

GLXMAW Soybean, Williams [9] = assay: Postemergence herbicidal evaluation, GLXMAW; assay type: in vivo, Glycine max, (L.) Merr. cv Williams; details: postemergence spray, rated about two-three weeks after treatment
In short: as §1

[10] = system: TRZAWR Wheat, Winter, cv Riband; assay: Postemergence herbicidal evaluation, TRZAWR; assay type: in vivo, Triticum aestivum; details: postemergence spray, rated about two-three weeks after treatment
In short: as §1

ORYSAT Rice, Tebonnet [11] = assay: Postemergence herbicidal evaluation, ORYSAT; assay type: in vivo, Oryza sativa, (L.); details: postemergence spray, rated about two-three weeks after treatment
In short: as §1

ZEAMX Corn, Field [12] = assay: Postemergence herbicidal evaluation, ZEAMX; assay type: in vivo, Zea mays, L. (Sammel-Bezeichnung); details: postemergence spray, rated about two-three weeks after treatment
In short: as §1

ABUTH Velvetleaf [13] = assay: Preemergence herbicidal evaluation, ABUTH; assay type: in vivo, Abutilon theophrasti, Medic.; details: preemergence
In short: (§2)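 First, seed is blended with potting soil and sown over roughly an inch of soil per cup. Next, the surface is sprayed with an aqueous acetone solution delivering about 0.013–0.800 kg/ha. Finally, cups are grown in the greenhouse and rated after 4–5 weeks.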

AMBEL Ragweed, Common [14] = assay: Preemergence herbicidal evaluation, AMBEL; assay type: in vivo, Ambrosia artemisifolia, L.; details: preemergence
In short: as §2

CASOB Sicklepod [15] = assay: Preemergence herbicidal evaluation, CASOB; assay type: in vivo, Cassia obtusifolia, L.; details: preemergence
In short: as §2

[16] = system: CHEAL Lambsquarters, Common; assay: Preemergence herbicidal evaluation, CHEAL; assay type: in vivo, Chenopodium album, L.; details: preemergence
In short: as §2

ECHOG Barnyardgrass [17] = assay: Preemergence herbicidal evaluation, ECHOG; assay type: in vivo, Echinochloa crus-galli, (L.) Beau; details: preemergence
In short: as §2

GALAP Galium [18] = assay: Preemergence herbicidal evaluation, GALAP; assay type: in vivo, Galium aparine; details: preemergence
In short: as §2

[19] = system: IPOHE Morningglory, Ivyleaf; assay: Preemergence herbicidal evaluation, IPOHE; assay type: in vivo, Ipomoea hederacea, (L.) Jacq.; details: preemergence
In short: as §2

SETVI Foxtail, Green [20] = assay: Preemergence herbicidal evaluation, SETVI; assay type: in vivo, Setaria viridis, (L.) Beau; details: preemergence
In short: as §2

GLXMAW Soybean, Williams [21] = assay: Preemergence herbicidal evaluation, GLXMAW; assay type: in vivo, Glycine max, (L.) Merr. cv Williams; details: preemergence
In short: as §2

[22] = system: TRZAWR Wheat, Winter, cv Riband; assay: Preemergence herbicidal evaluation, TRZAWR; assay type: in vivo, Triticum aestivum; details: preemergence
In short: as §2

ORYSAT Rice, Tebonnet [23] = assay: Preemergence herbicidal evaluation, ORYSAT; assay type: in vivo, Oryza sativa, (L.); details: preemergence
In short: as §2

ZEAMX Corn, Field [24] = assay: Preemergence herbicidal evaluation, ZEAMX; assay type: in vivo, Zea mays, L. (Sammel-Bezeichnung); details: preemergence
In short: as §2

## COC(=O)COc1ccc(C)cc1-n1nnc2cc(F)c(-n3c(=O)cc(C(F)(F)F)n(C)c3=O)cc21 [Example 34]
ABUTH Velvetleaf [1]; 0.008 kg/ha
  Postemergence herbicidal rating ABUTH: 9.0
ABUTH Velvetleaf [1]; 0.016 kg/ha
  Postemergence herbicidal rating ABUTH: 9.0
ABUTH Velvetleaf [1]; 0.032 kg/ha
  Postemergence herbicidal rating ABUTH: 9.0
ABUTH Velvetleaf [1]; 0.062 kg/ha
  Postemergence herbicidal rating ABUTH: 9.0
AMBEL Ragweed, Common [2]; 0.008 kg/ha
  Postemergence herbicidal rating AMBEL: 0.0
AMBEL Ragweed, Common [2]; 0.016 kg/ha
  Postemergence herbicidal rating AMBEL: 3.0
AMBEL Ragweed, Common [2]; 0.032 kg/ha
  Postemergence herbicidal rating AMBEL: 9.0
AMBEL Ragweed, Common [2]; 0.062 kg/ha
  Postemergence herbicidal rating AMBEL: 9.0
CASOB Sicklepod [3]; 0.008 kg/ha
  Postemergence herbicidal rating CASOB: 0.0
CASOB Sicklepod [3]; 0.016 kg/ha
  Postemergence herbicidal rating CASOB: 0.0
CASOB Sicklepod [3]; 0.032 kg/ha
  Postemergence herbicidal rating CASOB: 1.0
CASOB Sicklepod [3]; 0.062 kg/ha
  Postemergence herbicidal rating CASOB: 5.0
[4]; 0.008 kg/ha
  Postemergence herbicidal rating CHEAL: 2.0
[4]; 0.016 kg/ha
  Postemergence herbicidal rating CHEAL: 3.0
[4]; 0.032 kg/ha
  Postemergence herbicidal rating CHEAL: 3.0
[4]; 0.062 kg/ha
  Postemergence herbicidal rating CHEAL: 9.0
ECHOG Barnyardgrass [5]; 0.008 kg/ha
  Postemergence herbicidal rating ECHCG: 7.0
ECHOG Barnyardgrass [5]; 0.016 kg/ha
  Postemergence herbicidal rating ECHCG: 9.0
ECHOG Barnyardgrass [5]; 0.032 kg/ha
  Postemergence herbicidal rating ECHCG: 9.0
ECHOG Barnyardgrass [5]; 0.062 kg/ha
  Postemergence herbicidal rating ECHCG: 9.0
GALAP Galium [6]; 0.008 kg/ha
  Postemergence herbicidal rating GALAP: 0.0
GALAP Galium [6]; 0.016 kg/ha
  Postemergence herbicidal rating GALAP: 3.0
GALAP Galium [6]; 0.032 kg/ha
  Postemergence herbicidal rating GALAP: 4.0
GALAP Galium [6]; 0.062 kg/ha
  Postemergence herbicidal rating GALAP: 4.0
[7]; 0.008 kg/ha
  Postemergence herbicidal rating IPOHE: 9.0
[7]; 0.016 kg/ha
  Postemergence herbicidal rating IPOHE: 9.0
[7]; 0.032 kg/ha
  Postemergence herbicidal rating IPOHE: 9.0
[7]; 0.062 kg/ha
  Postemergence herbicidal rating IPOHE: 9.0
SETVI Foxtail, Green [8]; 0.008 kg/ha
  Postemergence herbicidal rating SETVI: 9.0
SETVI Foxtail, Green [8]; 0.016 kg/ha
  Postemergence herbicidal rating SETVI: 9.0
SETVI Foxtail, Green [8]; 0.032 kg/ha
  Postemergence herbicidal rating SETVI: 9.0
SETVI Foxtail, Green [8]; 0.062 kg/ha
  Postemergence herbicidal rating SETVI: 9.0
GLXMAW Soybean, Williams [9]; 0.008 kg/ha
  Postemergence herbicidal rating GLXMAW: 5.0
GLXMAW Soybean, Williams [9]; 0.016 kg/ha
  Postemergence herbicidal rating GLXMAW: 6.5
GLXMAW Soybean, Williams [9]; 0.032 kg/ha
  Postemergence herbicidal rating GLXMAW: 7.0
GLXMAW Soybean, Williams [9]; 0.062 kg/ha
  Postemergence herbicidal rating GLXMAW: 7.0
[10]; 0.008 kg/ha
  Postemergence herbicidal rating TRZAWR: 5.0
[10]; 0.016 kg/ha
  Postemergence herbicidal rating TRZAWR: 5.0
[10]; 0.032 kg/ha
  Postemergence herbicidal rating TRZAWR: 7.0
[10]; 0.062 kg/ha
  Postemergence herbicidal rating TRZAWR: 8.0
ORYSAT Rice, Tebonnet [11]; 0.008 kg/ha
  Postemergence herbicidal rating ORYSAT: 3.0
ORYSAT Rice, Tebonnet [11]; 0.016 kg/ha
  Postemergence herbicidal rating ORYSAT: 4.0
ORYSAT Rice, Tebonnet [11]; 0.032 kg/ha
  Postemergence herbicidal rating ORYSAT: 6.5
ORYSAT Rice, Tebonnet [11]; 0.062 kg/ha
  Postemergence herbicidal rating ORYSAT: 7.5
ZEAMX Corn, Field [12]; 0.008 kg/ha
  Postemergence herbicidal rating ZEAMX: 7.0
ZEAMX Corn, Field [12]; 0.016 kg/ha
  Postemergence herbicidal rating ZEAMX: 7.5
ZEAMX Corn, Field [12]; 0.032 kg/ha
  Postemergence herbicidal rating ZEAMX: 8.5
ZEAMX Corn, Field [12]; 0.062 kg/ha
  Postemergence herbicidal rating ZEAMX: 9.0
ABUTH Velvetleaf [13]; rate 0.016 kg/ha
  ABUTH herbicidal rating: 9.0
ABUTH Velvetleaf [13]; rate 0.032 kg/ha
  ABUTH herbicidal rating: 9.0
ABUTH Velvetleaf [13]; rate 0.062 kg/ha
  ABUTH herbicidal rating: 9.0
ABUTH Velvetleaf [13]; rate 0.125 kg/ha
  ABUTH herbicidal rating: 9.0
AMBEL Ragweed, Common [14]; rate 0.016 kg/ha
  AMBEL herbicidal rating: 1.0
AMBEL Ragweed, Common [14]; rate 0.032 kg/ha
  AMBEL herbicidal rating: 5.0
AMBEL Ragweed, Common [14]; rate 0.062 kg/ha
  AMBEL herbicidal rating: 6.0
AMBEL Ragweed, Common [14]; rate 0.125 kg/ha
  AMBEL herbicidal rating: 8.0
CASOB Sicklepod [15]; rate 0.032 kg/ha
  CASOB herbicidal rating: 2.0
CASOB Sicklepod [15]; rate 0.062 kg/ha
  CASOB herbicidal rating: 2.5
CASOB Sicklepod [15]; rate 0.125 kg/ha
  CASOB herbicidal rating: 6.0
[16]; rate 0.016 kg/ha
  CHEAL herbicidal rating: 9.0
[16]; rate 0.032 kg/ha
  CHEAL herbicidal rating: 9.0
[16]; rate 0.062 kg/ha
  CHEAL herbicidal rating: 9.0
[16]; rate 0.125 kg/ha
  CHEAL herbicidal rating: 9.0
ECHOG Barnyardgrass [17]; rate 0.016 kg/ha
  ECHCG herbicidal rating: 4.0
ECHOG Barnyardgrass [17]; rate 0.032 kg/ha
  ECHCG herbicidal rating: 2.0
ECHOG Barnyardgrass [17]; rate 0.062 kg/ha
  ECHCG herbicidal rating: 5.0
ECHOG Barnyardgrass [17]; rate 0.125 kg/ha
  ECHCG herbicidal rating: 7.5
GALAP Galium [18]; rate 0.016 kg/ha
  GALAP herbicidal rating: 0.0
GALAP Galium [18]; rate 0.032 kg/ha
  GALAP herbicidal rating: 0.0
GALAP Galium [18]; rate 0.062 kg/ha
  GALAP herbicidal rating: 0.0
GALAP Galium [18]; rate 0.125 kg/ha
  GALAP herbicidal rating: 7.0
[19]; rate 0.032 kg/ha
  IPOHE herbicidal rating: 9.0
[19]; rate 0.062 kg/ha
  IPOHE herbicidal rating: 5.0
[19]; rate 0.125 kg/ha
  IPOHE herbicidal rating: 9.0
SETVI Foxtail, Green [20]; rate 0.016 kg/ha
  SETVI herbicidal rating: 7.0
SETVI Foxtail, Green [20]; rate 0.032 kg/ha
  SETVI herbicidal rating: 6.0
SETVI Foxtail, Green [20]; rate 0.062 kg/ha
  SETVI herbicidal rating: 9.0
SETVI Foxtail, Green [20]; rate 0.125 kg/ha
  SETVI herbicidal rating: 9.0
GLXMAW Soybean, Williams [21]; rate 0.016 kg/ha
  GLXMAW herbicidal rating: 1.0
GLXMAW Soybean, Williams [21]; rate 0.032 kg/ha
  GLXMAW herbicidal rating: 1.0
GLXMAW Soybean, Williams [21]; rate 0.062 kg/ha
  GLXMAW herbicidal rating: 1.5
GLXMAW Soybean, Williams [21]; rate 0.125 kg/ha
  GLXMAW herbicidal rating: 2.0
[22]; rate 0.016 kg/ha
  TRZAWR herbicidal rating: 1.0
[22]; rate 0.032 kg/ha
  TRZAWR herbicidal rating: 1.0
[22]; rate 0.062 kg/ha
  TRZAWR herbicidal rating: 1.0
[22]; rate 0.125 kg/ha
  TRZAWR herbicidal rating: 3.0
ORYSAT Rice, Tebonnet [23]; rate 0.016 kg/ha
  ORYSAT herbicidal rating: 1.0
ORYSAT Rice, Tebonnet [23]; rate 0.032 kg/ha
  ORYSAT herbicidal rating: 2.5
ORYSAT Rice, Tebonnet [23]; rate 0.062 kg/ha
  ORYSAT herbicidal rating: 3.0
ORYSAT Rice, Tebonnet [23]; rate 0.125 kg/ha
  ORYSAT herbicidal rating: 5.0
ZEAMX Corn, Field [24]; rate 0.016 kg/ha
  ZEAMX herbicidal rating: 0.0
ZEAMX Corn, Field [24]; rate 0.032 kg/ha
  ZEAMX herbicidal rating: 0.5
ZEAMX Corn, Field [24]; rate 0.062 kg/ha
  ZEAMX herbicidal rating: 3.5
ZEAMX Corn, Field [24]; rate 0.125 kg/ha
  ZEAMX herbicidal rating: 4.0
